In ChEMBL document CHEMBL4184099, “Fragment-based discovery of a potent NAMPT inhibitor” (Bioorg Med Chem Lett, 2018):

How the values were obtained:
[1] = molecular target: T1, Nicotinamide phosphoribosyltransferase (Homo sapiens, UniProt P43490); experiment: Inhibition of NAM binding to human full length C-terminal flag/His-tagged NAMPT (1 to 491 residues) at 400 uM by STD-NMR spectroscopic analysis relative to control
Target sequence in this assay (P43490 whole entry, looked up, the tested form may be a part): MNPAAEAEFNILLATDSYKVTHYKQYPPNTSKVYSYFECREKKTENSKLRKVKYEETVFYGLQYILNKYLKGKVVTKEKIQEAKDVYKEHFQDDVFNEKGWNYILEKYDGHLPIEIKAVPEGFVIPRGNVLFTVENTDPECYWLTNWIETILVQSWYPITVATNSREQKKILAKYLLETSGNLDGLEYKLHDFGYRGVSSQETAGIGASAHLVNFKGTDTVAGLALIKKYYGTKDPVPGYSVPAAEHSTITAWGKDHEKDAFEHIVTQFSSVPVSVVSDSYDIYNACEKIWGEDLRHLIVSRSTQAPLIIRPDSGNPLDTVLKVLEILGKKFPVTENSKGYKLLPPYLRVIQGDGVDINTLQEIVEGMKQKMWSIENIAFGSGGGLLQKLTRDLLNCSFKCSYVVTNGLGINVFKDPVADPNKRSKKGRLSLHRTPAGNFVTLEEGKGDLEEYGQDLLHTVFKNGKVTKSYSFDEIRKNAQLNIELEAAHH

[2] = molecular target: T1, Nicotinamide phosphoribosyltransferase; experiment: Inhibition of human full length C-terminal flag/His-tagged NAMPT (1 to 491 residues) expressed in HEK293-6E cells by TR-FRET assay
Target sequence in this assay (P43490 whole entry, the tested form may be a part): as the sequence (P43490 whole entry, looked up, the tested form may be a part) above

inhibition [1] | IC50 [2] | Compound
80% | 360 µM | CCCc1cc(=O)[nH]c(Nc2ccccc2F)n1
80% | 850 µM | O=C(NCc1ccncc1)Nc1ccc(F)c(F)c1
 | 90 µM | O=C(Cc1ccccc1)Nc1ccc2nc[nH]c2c1
 | 10 µM | O=C1OCCC/C1=C\Nc1ccccc1
 | 0.08 µM | CC(C)CCNC(=O)c1ccc(NC(=O)Nc2ccc3nc[nH]c3c2)cc1
80% | > 1000 µM | O=C1C2CCC2C(=O)N1CCc1ccccn1 (stereo unspecified)
80% | 8 µM | Cc1ccc(Cn2nnc3cc(C(N)=O)ccc32)cc1
